US12077503B2, “Substituted cyclic amides and their use as herbicides” (FMC CORPORATION, priority 2015, dated 2024)

Experiments:
Assay in all cases: Test G Pre-Emergence Protocol
Type in all cases: in vivo
[1] = system: barnyardgrass (Echinochloa crus-galli); settings: Echinochloa crus-galli, pre-emergence, 312 h, evaluated after 13 days; for pest or weed control at 15.625 g/ha: 15.625 g ai/ha, read-out: Barnyard grass damage rating (100=total damage to plant; 0=no damage to plant); for pest or weed control at 62.5 g/ha: 62.5 g ai/ha, 100=total damage to plant, 0=no damage to plant, read-out: plant damage rating, Barnyardgrass; for pest or weed control at 250 g/ha: 250 g ai/ha, read-out: Barnyardgrass damage rating (100=total damage to plant; 0=no damage to plant)
Experimental: (§1) Seeds of corn (Zea mays), giant foxtail (Setaria faberi), barnyardgrass (Echinochloa crus-galli), ivy-leaved morning glory (Ipomoea hederacea), redroot pigweed (Amaranthus retroflexus) and velvetleaf (Abutilon theophrasti) were sown in standard soil in pots. After cultivation for one day under controlled conditions in a glasshouse (at 24/16° C., day/night; 14 hours light; 65% humidity), the plants were sprayed with an aqueous spray solution derived from the formulation of the technical active ingredient in acetone/water (50:50) solution containing 0.5% Tween 20 (polyoxyethylene sorbitan monolaurate, CAS RN 9005-64-5) to give a final dose of 15.625, 62.5 or 250 g/ha of test compound.
(§2) The test plants were then grown on under controlled conditions in a glasshouse (at 24/16° C., day/night; 14 hours light; 65% humidity) and watered twice daily. After 13 days the test was evaluated (100=total damage to plant; 0=no damage to plant). A dash (-) means no test result.

corn (Zea mays) = settings: Zea mays, pre-emergence, 312 h, evaluated after 13 days; for plant injury at 15.625 g/ha: 15.625 g ai/ha; for plant injury at 15.625 g/ha / plant injury at 250 g/ha: read-out: Corn damage rating (100=total damage to plant; 0=no damage to plant); for plant injury at 62.5 g/ha: 62.5 g ai/ha, 100=total damage to plant, 0=no damage to plant, read-out: plant damage rating, Corn; for plant injury at 250 g/ha: 250 g ai/ha
Experimental: as §1, §2

[2] = system: giant foxtail (Setaria faberi); settings: Setaria faberi, pre-emergence, 312 h, evaluated after 13 days; for pest or weed control at 15.625 g/ha: 15.625 g ai/ha; for pest or weed control at 15.625 g/ha / pest or weed control at 250 g/ha: read-out: Foxtail, Giant damage rating (100=total damage to plant; 0=no damage to plant); for pest or weed control at 62.5 g/ha: 62.5 g ai/ha, 100=total damage to plant, 0=no damage to plant, read-out: plant damage rating, Foxtail, Giant; for pest or weed control at 250 g/ha: 250 g ai/ha
Experimental: as §1, §2

[3] = system: ivy-leaved morning glory (Ipomoea hederacea); settings: Ipomoea, pre-emergence, 312 h, evaluated after 13 days; for pest or weed control at 62.5 g/ha: 62.5 g ai/ha, 100=total damage to plant, 0=no damage to plant, read-out: plant damage rating, Morningglory, Ivy-leaved; for pest or weed control at 250 g/ha: 250 g ai/ha, read-out: Morningglory, Ivy-leaved damage rating (100=total damage to plant; 0=no damage to plant); for pest or weed control at 15.625 g/ha: 15.625 g ai/ha, read-out: Morning-glory, Ivy-leaved damage rating (100=total damage to plant; 0=no damage to plant)
Experimental: as §1, §2

[4] = system: redroot pigweed (Amaranthus retroflexus); settings: Amaranthus retroflexus, pre-emergence, 312 h, evaluated after 13 days; for pest or weed control at 15.625 g/ha: 15.625 g ai/ha; for pest or weed control at 15.625 g/ha / pest or weed control at 250 g/ha: read-out: Pigweed, Redroot damage rating (100=total damage to plant; 0=no damage to plant); for pest or weed control at 62.5 g/ha: 62.5 g ai/ha, 100=total damage to plant, 0=no damage to plant, read-out: plant damage rating, Pigweed, Redroot; for pest or weed control at 250 g/ha: 250 g ai/ha
Experimental: as §1, §2

[5] = system: velvetleaf (Abutilon theophrasti); settings: Abutilon theophrasti, pre-emergence, 312 h, evaluated after 13 days; for pest or weed control at 15.625 g/ha: 15.625 g ai/ha; for pest or weed control at 15.625 g/ha / pest or weed control at 250 g/ha: read-out: Velvetleaf damage rating (100=total damage to plant; 0=no damage to plant); for pest or weed control at 62.5 g/ha: 62.5 g ai/ha, 100=total damage to plant, 0=no damage to plant, read-out: plant damage rating, Velvetleaf; for pest or weed control at 250 g/ha: 250 g ai/ha
Experimental: as §1, §2

SMILES	pest or weed control at 15.625 g/ha [1] [%]	pest or weed control at 62.5 g/ha [1] [%]	pest or weed control at 250 g/ha [1] [%]	plant injury at 15.625 g/ha (corn (Zea mays)) [%]	plant injury at 62.5 g/ha (corn (Zea mays)) [%]	plant injury at 250 g/ha (corn (Zea mays)) [%]	pest or weed control at 15.625 g/ha [2] [%]	pest or weed control at 62.5 g/ha [2] [%]	pest or weed control at 250 g/ha [2] [%]	pest or weed control at 62.5 g/ha [3] [%]	pest or weed control at 250 g/ha [3] [%]	pest or weed control at 15.625 g/ha [4] [%]	pest or weed control at 62.5 g/ha [4] [%]	pest or weed control at 250 g/ha [4] [%]	pest or weed control at 15.625 g/ha [5] [%]	pest or weed control at 62.5 g/ha [5] [%]	pest or weed control at 250 g/ha [5] [%]	pest or weed control at 15.625 g/ha [3] [%]
CN1C[C@@H](c2ccc(C(F)(F)F)cc2)[C@H](C(=O)Nc2cnccc2C(F)(F)F)C1=O (racemic) [Compound 1401]	20	30	80	0	10	20	40	70	90	0	20	0	40	90	0	30	70	–
CN1C[C@H](c2cccc(C(C)(C)C#N)c2)[C@@H](C(=O)Nc2cccc(F)c2F)C1=O (racemic) [Compound 1497]	0	30	80	0	0	10	0	60	80	0	20	0	0	0	0	0	0	0
CN1C[C@@H](c2ccc(C(F)(F)F)cc2)[C@H](C(=O)Nc2ccnc(Cl)c2Cl)C1=O (racemic) [Compound 1503]	0	0	20	0	0	0	0	0	30	0	0	0	–	0	0	0	0	–
CN1C[C@@H](c2ccc(C(F)(F)F)cc2)[C@H](C(=O)Nc2ncc(C(F)(F)F)s2)C1=O (racemic) [Compound 1504]	0	0	0	0	0	0	0	0	0	0	0	0	0	0	0	0	0	0
